Measurements: patent US20070135405A1, “Novel diazabicyclononene and tetrahydropyridine derivatives with a new polar side-chain” (priority 2003, published 2007)

Target: T1, human recombinant renin (Homo sapiens, UniProt P00797)
T1 sequence (P00797 67-406): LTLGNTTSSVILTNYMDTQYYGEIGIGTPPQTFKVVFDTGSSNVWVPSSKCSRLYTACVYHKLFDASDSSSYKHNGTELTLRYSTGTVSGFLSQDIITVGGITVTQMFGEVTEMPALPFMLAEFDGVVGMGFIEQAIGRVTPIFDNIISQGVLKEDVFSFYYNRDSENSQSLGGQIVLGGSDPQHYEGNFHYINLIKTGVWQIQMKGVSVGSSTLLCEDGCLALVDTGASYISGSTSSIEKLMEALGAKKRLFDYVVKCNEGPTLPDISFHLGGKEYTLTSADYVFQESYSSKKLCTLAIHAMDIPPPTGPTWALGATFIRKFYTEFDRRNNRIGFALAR
Assay: Inhibition of human recombinant renin, enzymatic in vitro assay with Ang I detection by EIA
Type: biochemical
Settings: human recombinant renin 0.16 ng/mL, synthetic human angiotensin (1-14) 0.5 μM, 37° C. for 3 h; read-out: IC50 (concentration of renin inhibition that inhibited the enzyme activity by 50%)
Experimental: Inhibition of Human Recombinant Renin by the Compounds of the Invention The enzymatic in vitro assay was performed in 384-well polypropylene plates (Nunc). The assay buffer consisted of 10 mM PBS (Gibco BRL) including 1 mM EDTA and 0.1% BSA. The incubates were composed of 50 μL per well of an enzyme mix and 2.5 µL of renin inhibitors in DMSO. The enzyme mix was premixed at 4° C. and consists of the following components: • human recombinant renin (0.16 ng/mL)●synthetic human angiotensin (1-14) (0.5 μM) • hydroxyquinoline sulfate (1 mM) The mixtures were then incubated at 37° C. for 3 h. To determine the enzymatic activity and its inhibition, the accumulated Ang I was detected by an enzyme immunoassay (EIA) in 384-well plates (Nunc). 5 μL of the incubates or standards were transferred to immuno plates which were previously coated with a covalent complex of Ang I and bovine serum albumin (Ang I—BSA). 75 μL of Ang I-antibodies in essaybuffer above including 0.01% Tween 20 were added and a primary incubation made at 4° C. overnight. The plates were washed 3 times with PBS including 0.01% Tween 20, and then incubated for 2 h at rt with an antirabbit-peroxidase coupled antibody (WA 934, Amersham).

Row | IC50 [nM] | SMILES
1 | 0.18 | Cc1cc(Cl)c(OCCOc2ccc(C3=C(C(=O)N(Cc4ccnc(OCCCO)c4C)C4CC4)C4CCC(C3)N4)cc2)c(Cl)c1 (racemic) [Example 2, (rac.)-(1R*, 5S*)-3-{4-[2-(2,6Dichloro-4-methylphenoxy)ethoxy]phenyl}-8-azabicyclo[3.2.1]oct-2-ene-2-carboxylic acid cyclopropyl-[2-3-hydroxy-propoxy)-3-methylpyridin4-ylmethyl]amide]
2 | 5.51 | Cc1c(CN(C(=O)C2=C(c3ccc(CCCOc4c(F)ccc(F)c4Cl)cc3)CC3CS(=O)(=O)CC2N3)C2CC2)ccnc1OCCCO (racemic) [Example 3, (rac.)-(1R*, 5S*)-7-14-[3-(2-Chloro-3,6-difluorophenoxy)propyl]phenyl}-3,3-dioxo-3λ^6-thia-9-azabicyclo[3.3.1]non-6-ene-6-carboxylic acid cyclopropyl-[2-(3-hydroxypropoxy)-3-methylpyridin-4-ylmethyl]amide]
3 | 0.25 | Cc1c(CN(C(=O)C2=C(c3ccc(CCCOc4c(F)ccc(F)c4Cl)cc3)C[C@@H]3CC[C@H]2N3)C2CC2)ccnc1OCCCO (racemic) [Example 1, (rac.)-(1R*, 5S*)-3-{4-[3-(2-Chloro-3,6-difluorophenoxy)propyl]phenyl}-8-azabicyclo[3.2.1]oct-2-ene-2-carboxylic acid cyclopropyl-[2-(3-hydroxy-propoxy)-3-methylpyridin-4-ylmethyl]amide]
4 | 6.7 | COC(=O)CCOc1nccc(CN(C(=O)C2=C(c3ccc(CCCOc4c(F)ccc(F)c4Cl)cc3)CC3CCC2N3)C2CC2)c1C (racemic) [Example 6, (rac.)-(1R *, 5S*)-3-(4-{[(3-({4-[3-(2-Chloro-3,6-difluorophenoxy)propyl]-phenyl}-8-azabicyclo[3.2.1]oct-2-ene-2-carbonyl)cyclopropylamino]methyl}-3-methylpyridin-2-yloxy)propionic acid methyl ester]
5 | 0.55 | Cc1c(CN(C(=O)C2=C(c3ccc(CCCOc4c(F)ccc(F)c4Cl)cc3)CC3COCC2N3)C2CC2)ccnc1OCCCO (racemic) [Example 4, (rac.)-(1R*, 5S*)-7-(4-13-(2-Chloro-3,6-difluorophenoxy)propyl]phenyl}-3-oxa-9-azabicyclo[3.3.1]non-6-ene-6-carboxylic acid cyclopropyl-[2-(3-hydroxypropoxy)-3-methylpyridin-4-ylmethyl]amide]
6 | 3 | Cc1c(CN(C(=O)C2=C(c3ccc(CCCOc4c(F)ccc(F)c4Cl)cc3)C[C@@H]3CC[C@H]2N3)C2CC2)ccnc1OCCC(N)=O (racemic) [Example 7, (rac.)-(1R*, 5S*)-3-{4-[3-(2-Chloro-3,6-difluorophenoxy)propyl]phenyl}-8-azabicyclo[3.2.1]oct-2-ene-2-carboxylic acid [2-(2-carbamoylethoxy)-3-methylpyridin-4-ylmethyl]cyclopropylamide]
7 | 3 | Cc1c(CN(C(=O)C2=C(c3ccc(CCCOc4c(F)ccc(F)c4Cl)cc3)C[C@@H]3CC[C@H]2N3)C2CC2)ccnc1OCCC(=O)O (racemic) [Example 5, (rac.)-(1R*, 5S*)-3-(4-{[(3-{4-[3-(2-Chloro-3,6-difluorophenoxy)propyl]-phenyl}-8azabicyclo[3.2.1]oct-2-ene-2-carbonyl)cyclopropylamino]methyl}-3-methyl-pyridin-2-yloxy)propionic acid]
